Ten molecules from BindingDB's records for doi:10.1111/j.1747-0285.2009.00910.x (Universit&Agrave, 2010) can be followed below.

What is called Ki is the dissociation constant of the complex between target and ligand, obtained from inhibition or displacement.

Cannabinoid receptor 1, sequence (P20272 whole entry): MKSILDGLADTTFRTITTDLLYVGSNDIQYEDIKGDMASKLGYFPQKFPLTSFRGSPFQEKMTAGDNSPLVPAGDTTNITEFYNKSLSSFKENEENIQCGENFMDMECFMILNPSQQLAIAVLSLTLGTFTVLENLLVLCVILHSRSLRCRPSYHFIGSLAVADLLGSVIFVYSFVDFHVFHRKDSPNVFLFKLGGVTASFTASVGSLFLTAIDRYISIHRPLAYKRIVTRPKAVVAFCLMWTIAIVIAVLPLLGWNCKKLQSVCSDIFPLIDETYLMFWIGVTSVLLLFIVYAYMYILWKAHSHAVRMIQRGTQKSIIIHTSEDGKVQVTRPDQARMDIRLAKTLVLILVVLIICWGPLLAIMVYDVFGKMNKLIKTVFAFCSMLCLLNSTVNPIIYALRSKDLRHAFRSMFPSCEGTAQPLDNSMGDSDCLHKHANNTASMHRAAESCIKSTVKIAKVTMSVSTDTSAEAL

For this assay, the target named is Cannabinoid receptor 1 (Rattus norvegicus, UniProt P20272). As to the kind of experiment: Binding Assay. The note with it: pH 7.4; 25 °C. The procedure:
CB1 competitive assay were performed in rat cerebellar membranes using [3H]WIN 55212-2 from Perkin-Elmer as a radioligand.
`COc1ccc(/N=C2\C(=O)N(CCN3CCOCC3)c3ccccc32)cc1` [3-(Arylimino)-1-(2-morpholin-4-yl-ethyl)-1,3-dihydro-indole-2-one, 1] showed an inhibition constant (Ki) of 0.311 µM.

In turn, `O=C1/C(=N\c2cccc3ccccc23)c2ccccc2N1CCN1CCOCC1` [3-(Arylimino)-1-(2-morpholin-4-yl-ethyl)-1,3-dihydro-indole-2-one, 4] yielded a Ki of 0.553 µM. Take `Clc1ccc(NCc2cn(CCN3CCOCC3)c3ccccc23)cc1` [4-chloro-N-({1-[2-(morpholin-4-yl)ethyl]-1H-indol-3-yl}methyl)aniline, 9]: the affinity corresponds to a Ki of 0.0241 µM. Turning to `COc1ccc(NCc2cn(CCN3CCOCC3)c3ccccc23)cc1` [4-methoxy-N-({1-[2-(morpholin-4-yl)ethyl]-1H-indol-3-yl}methyl)aniline, 7], the Ki came out at 0.0426 µM.

`Cc1ccc(NCc2cn(CCN3CCOCC3)c3ccccc23)cc1` [4-methyl-N-({1-[2-(morpholin-4-yl)ethyl]-1H-indol-3-yl}methyl)aniline, 10]: the Ki came to 0.0157 µM.

On to `COc1ccc(/N=C2\C(=O)N(CCN3CCOCC3)c3ccc(Cl)cc32)cc1` [5-Substituted derivative, 2], for which the inhibition constant Ki amounted to 0.0746 µM.

Consider `COc1ccc(/N=C2\C(=O)N(CCN3CCOCC3)c3ccc(C)cc32)cc1` [5-Substituted derivative, 3], for which the Ki came out at 0.39 µM. As to `O=C1/C(=N\c2cccc3ccccc23)c2cc(Cl)ccc2N1CCN1CCOCC1` [5-Substituted derivative, 5], the inhibition constant Ki is 0.0084 µM. Next, `Cc1ccc2c(c1)/C(=N/c1cccc3ccccc13)C(=O)N2CCN1CCOCC1` [5-Substituted derivative, 6]: 0.0696 µM. Next, `c1ccc2c(NCc3cn(CCN4CCOCC4)c4ccccc34)cccc2c1` [N-({1-[2-(morpholin-4-yl)ethyl]-1H-indol-3-yl}methyl)naphthalen-1-amine, 8]: 0.0494 µM.
